Laboratory results as given in patent publication US20230081426A1, “COMPOUNDS AND METHODS FOR KRAS MODULATION AND INDICATIONS THEREFOR” (Plexxikon Inc., priority 2020, published 2023).
Where two headings read alike, the source gives them in different places. Values belong to the compound of their own block, whether it stands above or below them.

Legend:
[1] = molecular target: T1, G12C-mutant human KRAS (amino acid residues 1-188) (Homo sapiens, UniProt P01116, G12C); assay: KRAS Binding Disruption Assay (AlphaScreen; biotinylated KRpep-2d analogue or RAF1-RBD), G12C; conditions: geometric mean, read-out: KRAS GMean IC50 (uM) MUTATION: G12C
T1 construct: G12D or G12C-mutant human KRAS (amino acid residues 1-188) with FLAG tag; made in house; host or cells: E. coli
In short: (§1)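 AlphaScreen readout: signal falls as compound displaces biotinylated KRpep-2d analogue or RAF1-RBD from mutant KRAS. Both partners at 5-20 nM, 1 h binding at 25° C, then 10 μg/mL Anti-Flag acceptor and streptavidin donor beads for 1 h. IC50 by nonlinear regression of % inhibition.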

[2] = molecular target: T2, G12D-mutant human KRAS (amino acid residues 1-188) (Homo sapiens, UniProt P01116, G12D); assay: KRAS Binding Disruption Assay (AlphaScreen; biotinylated KRpep-2d analogue or RAF1-RBD), G12D; conditions: for IC50: geometric mean, read-out: KRAS GMean IC50 (uM) MUTATION: G12D
T2 construct: G12D or G12C-mutant human KRAS (amino acid residues 1-188) with FLAG tag; made in house; host or cells: E. coli
In short: as §1

[3] = molecular target: T3, G12V-mutant human KRAS (amino acid residues 1-188) (Homo sapiens, UniProt P01116, G12V); assay: KRAS Binding Competition Assay (AlphaScreen; biotinylated KRpep-2d analogue), G12V; conditions: geometric mean, read-out: KRAS GMean IC50 (uM) MUTATION: G12V
T3 construct: G12V-mutant human KRAS (amino acid residues 1-188) with FLAG tag was purified from E. coli; made in house; host or cells: E. coli

Compound: CN1CCC[C@H]1COc1nc(N2C[C@H]3CC[C@@H](C2)N3)c2cc(Cl)c(-c3cc(O)cc4ccccc34)c(F)c2n1 [P-0001, 4-(4-((1R,5S)-3,8-diazabicyclo[3.2.1]octan-3-yl)-6-chloro-8-fluoro-2-(((S)-1-methylpyrrolidin-2-yl)methoxy)quinazolin-7-yl)naphthalen-2-ol]
- IC50 [1]: 0.0001 to 10 µM
- IC50 ([2]; KRAS G12D): 0.0001 to 10 µM
- Improved KRAS G12D Biochemical Potency of Compounds with Bridged vs Non-Bridged R^1 Groups ([2]; Table 3, fold more potent than non-bridged version at the R1 variable): P-0001 is about 70 times more potent than its non- bridged version at the R^1 variable.
- IC50 ([2]; Table 3, bridged vs non-bridged R1): 0.016 µM
- IC50 [3]: 10 to 100 µM

Compound: CN1[C@@H]2CC[C@H]1CN(c1nc(OCC34CCCN3CCC4)nc3cc(-c4cc(O)cc5ccccc45)ccc13)C2 [P-0017, 4-(4-((1R,5S)-8-methyl-3,8-diazabicyclo[3.2.1]octan-3-yl)-2-((tetrahydro-1H-pyrrolizin-7a(5H)-yl)methoxy)quinazolin-7-yl)naphthalen-2-ol]
- IC50 [1]: 10 to 100 µM
- IC50 ([2]; KRAS G12D): 0.0001 to 10 µM
- IC50 [3]: 10 to 100 µM

Compound: CN1CCC[C@H]1COc1nc(N2C[C@H]3CC[C@@H](C2)N3)c2cc(C(=O)O)c(-c3cc(O)cc4ccccc34)c(F)c2n1 [P-0024, 4-(3,8-Diazabicyclo[3.2.1]octan-3-yl)-8-fluoro-7-(3-hydroxy-1-naphthyl)-2-[[(2S)-1-methylpyrrolidin-2-yl]methoxy]quinazoline-6-carboxylic acid]
- IC50 [1]: 10 to 100 µM
- IC50 ([2]; KRAS G12D): 0.0001 to 10 µM
- IC50 [3]: 0.0001 to 10 µM

Compound: Fc1c(-c2c[nH]c3cccc(F)c23)c(Cl)cc2c(N3C[C@H]4CC[C@@H](C3)N4)nc(OCC34CCCN3CCC4)nc12 [P-0809, 4-((1R,5S)-3,8-diazabicyclo[3.2.1]octan-3-yl)-6-chloro-8-fluoro-7-(4-fluoro-1H-indol-3-yl)-2-((tetrahydro-1H-pyrrolizin-7a(5H)-yl)methoxy)quinazoline]
- IC50 [1]: 10 to 100 µM
- IC50 ([2]; KRAS G12D): 0.0001 to 10 µM

Compound: Oc1cc(-c2ccc3c(N4C[C@H]5CC[C@@H](C4)N5)nc(OCC4CCCC4)nc3c2F)c2ccccc2c1 [P-0810, 4-(4-((1R,5S)-3,8-diazabicyclo[3.2.1]octan-3-yl)-2-(cyclopentylmethoxy)-8-fluoroquinazolin-7-yl)naphthalen-2-ol]
- IC50 [1]: 10 to 100 µM
- IC50 ([2]; KRAS G12D): 0.0001 to 10 µM

Compound: OCCCc1nc(N2C[C@H]3CC[C@@H](C2)N3)c2ccc(-c3cc(O)cc4ccccc34)c(F)c2n1 [P-0811, 4-(4-((1R,5S)-3,8-diazabicyclo[3.2.1]octan-3-yl)-8-fluoro-2-(3-hydroxypropyl)quinazolin-7-yl)naphthalen-2-ol]
- IC50 [1]: 100 to 1000 µM
- IC50 ([2]; KRAS G12D): 0.0001 to 10 µM

Compound: OC/C=C/c1nc(N2C[C@H]3CC[C@@H](C2)N3)c2ccc(-c3cc(O)cc4ccccc34)c(F)c2n1 [P-0812, 4-(4-((1R,5S)-3,8-diazabicyclo[3.2.1]octan-3-yl)-8-fluoro-2-((E)-3-hydroxyprop-1-en-1-yl)quinazolin-7-yl)naphthalen-2-ol]
- IC50 [1]: 10 to 100 µM
- IC50 ([2]; KRAS G12D): 0.0001 to 10 µM

The next lines start with the values.

- IC50 [1]: 0.0001 to 10 µM
- IC50 ([2]; KRAS G12D): 0.0001 to 10 µM
- IC50 [3]: 0.0001 to 10 µM
Compound: Oc1cc(-c2ccc3c(N4C[C@H]5CC[C@@H](C4)N5)nc(OCC45CCCN4CCC5)nc3c2)c2ccccc2c1 [P-0002, 4-(4-((1R,5S)-3,8-diazabicyclo[3.2.1]octan-3-yl)-2-((tetrahydro-1H-pyrrolizin-7a(5H)-yl)methoxy)quinazolin-7-yl)naphthalen-2-ol]

- IC50 [1]: 0.0001 to 10 µM
- IC50 ([2]; KRAS G12D): 0.0001 to 10 µM
- IC50 [3]: 10 to 100 µM
Compound: Cc1cccc2cccc(-c3ccc4c(N5C[C@H]6CC[C@@H](C5)N6)nc(OCC56CCCN5CCC6)nc4c3F)c12 [P-0005, 4-((1R,5S)-3,8-diazabicyclo[3.2.1]octan-3-yl)-8-fluoro-7-(8-methylnaphthalen-1-yl)-2-((tetrahydro-1H-pyrrolizin-7a(5H)-yl)methoxy)quinazoline]

- IC50 [1]: 0.0001 to 10 µM
- IC50 ([2]; KRAS G12D): 0.0001 to 10 µM
- IC50 [3]: 0.0001 to 10 µM
Compound: NCC(=O)N1[C@@H]2CC[C@H]1CN(c1nc(OCC34CCCN3CCC4)nc3cc(-c4cc(O)cc5ccccc45)ccc13)C2 [P-0007, 2-amino-1-((1R,5S)-3-(7-(3-hydroxynaphthalen-1-yl)-2-((tetrahydro-1H-pyrrolizin-7a(5H)-yl)methoxy)quinazolin-4-yl)-3,8-diazabicyclo[3.2.1]octan-8-yl)ethan-1-one]

- IC50 [1]: 0.0001 to 10 µM
- IC50 ([2]; KRAS G12D): 0.0001 to 10 µM
- IC50 [3]: 0.0001 to 10 µM
Compound: O=C(CO)N1[C@@H]2CC[C@H]1CN(c1nc(OCC34CCCN3CCC4)nc3cc(-c4cc(O)cc5ccccc45)ccc13)C2 [P-0008, 2-hydroxy-1-((1R,5S)-3-(7-(3-hydroxynaphthalen-1-yl)-2-((tetrahydro-1H-pyrrolizin-7a(5H)-yl)methoxy)quinazolin-4-yl)-3,8-diazabicyclo[3.2.1]octan-8-yl)ethan-1-one]

- IC50 [1]: 0.0001 to 10 µM
- IC50 ([2]; KRAS G12D): 0.0001 to 10 µM
- IC50 [3]: 0.0001 to 10 µM
Compound: CN1CCC[C@H]1COc1nc(N2C[C@H]3CC[C@@H](C2)N3)c2cc(F)c(-c3cc(O)cc4ccccc34)c(F)c2n1 [P-0009, 4-(4-((1R,5S)-3,8-diazabicyclo[3.2.1]octan-3-yl)-6,8-difluoro-2-(((S)-1-methylpyrrolidin-2-yl)methoxy)quinazolin-7-yl)naphthalen-2-ol]

- IC50 [1]: 0.0001 to 10 µM
- IC50 ([2]; KRAS G12D): 0.0001 to 10 µM
- IC50 [3]: 0.0001 to 10 µM
Compound: Oc1cc(-c2c(F)cc3c(N4C[C@H]5CC[C@@H](C4)N5)nc(OCC45CCCN4CCC5)nc3c2F)c2ccccc2c1 [P-0010, 4-(4-((1R,5S)-3,8-diazabicyclo[3.2.1]octan-3-yl)-6,8-difluoro-2-((tetrahydro-1H-pyrrolizin-7a(5H)-yl)methoxy)quinazolin-7-yl)naphthalen-2-ol]

- IC50 [1]: 0.0001 to 10 µM
- IC50 ([2]; KRAS G12D): 0.0001 to 10 µM
- IC50 [3]: 0.0001 to 10 µM
Compound: Cc1c(-c2cc(O)cc3ccccc23)ccc2c(N3C[C@H]4CC[C@@H](C3)N4)nc(OCC34CCCN3CCC4)nc12 [P-0015, 4-(4-((1R,5S)-3,8-diazabicyclo[3.2.1]octan-3-yl)-8-methyl-2-((tetrahydro-1H-pyrrolizin-7a(5H)-yl)methoxy)quinazolin-7-yl)naphthalen-2-ol]

- IC50 [1]: 0.0001 to 10 µM
- IC50 ([2]; KRAS G12D): 0.0001 to 10 µM
- IC50 [3]: 0.0001 to 10 µM
Compound: CN1CCC[C@H]1COc1nc(N2C[C@H]3CC[C@@H](C2)N3)c2cc(C#N)c(-c3cc(O)cc4ccccc34)c(F)c2n1 [P-0021, 4-((1R,5S)-3,8-diazabicyclo[3.2.1]octan-3-yl)-8-fluoro-7-(3-hydroxynaphthalen-1-yl)-2-(((S)-1-methylpyrrolidin-2-yl)methoxy)quinazoline-6-carbonitrile]

- IC50 [1]: 0.0001 to 10 µM
- IC50 ([2]; KRAS G12D): 0.0001 to 10 µM
Compound: O=C(CCn1ccnc1)N1[C@@H]2CC[C@H]1CN(c1nc(OCC34CCCN3CCC4)nc3c(F)c(-c4cc(O)cc5ccccc45)ccc13)C2 [P-0807, 1-((1R,5S)-3-(8-fluoro-7-(3-hydroxynaphthalen-1-yl)-2-((tetrahydro-1H-pyrrolizin-7a(5H)-yl)methoxy)quinazolin-4-yl)-3,8-diazabicyclo[3.2.1]octan-8-yl)-3-(1H-imidazol-1-yl)propan-1-one]

- IC50 [1]: 0.0001 to 10 µM
- IC50 ([2]; KRAS G12D): 0.0001 to 10 µM
Compound: N#CCCC(=O)N1[C@@H]2CC[C@H]1CN(c1nc(OCC34CCCN3CCC4)nc3c(F)c(-c4cc(O)cc5ccccc45)ccc13)C2 [P-0808, 4-((1R,5S)-3-(8-fluoro-7-(3-hydroxynaphthalen-1-yl)-2-((tetrahydro-1H-pyrrolizin-7a(5H)-yl)methoxy)quinazolin-4-yl)-3,8-diazabicyclo[3.2.1]octan-8-yl)-4-oxobutanenitrile]
